Data as given in ChEMBL document CHEMBL1153225 (Bioorg Med Chem Lett, 2010).

Test system: RAW264.7
Assay: Antiresorptive activity in mouse RAW264.7 cells assessed as inhibition of tartrate-resistant acid phosphatase activity at 60 uM
Design: scale not given: the % may be the effect or the level left

`CCCCC/C(=N/S(=O)(=O)c1ccc(C)cc1)N1C(C)CCCC1C` (stereo unspecified) showed an Activity of 0%.
